Drawing on patent US7547804B2, “Compounds, compositions, and methods employing same” (Myriad Genetics, Inc., priority 2002, dated 2009), this text covers EC50 for 72 molecules.

SMILES strings stand for the structures.

The test system of the first test is LNCaP cell lines. As to the kind of experiment: WST-1 Cell Proliferation and Viability Assay. The settings on record: Homo sapiens; LNCaP cells, compound incubation 18-72 hours. It counts as cell-based. On the procedure:
WST-1 Cell Proliferation and Viability Assay
Cell proliferation and cell viability was assessed using the tetrazolium salt WST-1 (Roche Applied Science, Indianapolis Ind.). The assay is based on the cleavage of WST-1 (light red) by mitochondrial dehydrogenase causing the formation of formazan (dark red), which can be measured on an optical density (O.D.) reader. LNCaP cell lines were plated in 96 well tissue culture plates (Corning Costar, N.Y.) at a density of 5000 cells/well in 150 μl complete media phenol-red free (RPMI-1640 [Invitrogen, Carlsbad Calif.] and 10% fetal calf serum). This plate is termed the assay plate. After the cells are plated, they are then incubated overnight at 37 degrees Celsius in a humidified chamber containing 5% CO2 (incubator).
Compounds are added to the assay plate in 50 μl of complete media and 0.4% DMSO (v:v) making the final DMSO concentration 0.1%. The assay plate is then returned to the incubator for 18-72 hours. WST-1 reagent is then added (20 μl/well) and the plate is placed on an ELISA plate shaker for 30 minutes at room temperature. Plates are then transferred back to the incubator for an additional 3 hours. Plates are then read on a 96 well plate O.D. reader at A490-A650.
Turning to `O=C(Nc1cc(C(F)(F)F)ccc1NCC(c1ccccc1)c1ccccc1)c1cc(Cl)ccc1O` [Compound 275], a half-maximal effect (EC50) was put at 3 µM. Molecule `CCCOCCOc1ccc(C(F)(F)F)cc1NC(=O)c1cc(Cl)ccc1O` [Compound 301] came in with an EC50 of 0.67 µM. In the case of `O=C(NCc1cccc(-c2ccccc2)c1)c1cc(Br)ccc1O` [Compound 192], the EC50 was 30 µM. The same measure, in the same setting: the figure for `O=C(Nc1cccc(OCCC2CCCCC2)c1)c1cc(Cl)ccc1O` [Compound 46] is 5 µM; for `COc1cccc(CCOc2ccc(Cl)cc2NC(=O)c2cc(Cl)ccc2O)c1` [Compound 112] it is 2 µM; for `Cc1ccc(O)c(C(=O)Nc2cccc(OCCc3ccccc3)c2)c1` [Compound 212] it is 20 µM. The same measure, in the same setting: with `Cc1ccccc1CCOc1ccc(Cl)cc1NC(=O)c1cc(Cl)ccc1O` [Compound 76] the figure was 1 µM; with `COc1ccccc1CCOc1cccc(NC(=O)c2cc(C)ccc2O)c1` [Compound 209], 17 µM. Still for that read-out and setting: with `O=C(Nc1cc(C(F)(F)F)ccc1OCCc1ccc(C(F)(F)F)cc1)c1cc(Cl)ccc1O` [Compound 160] the figure was 0.7 µM; with `Cc1ccc(COc2ccc(Cl)cc2NC(=O)c2cc(Cl)ccc2O)cc1` [Compound 306], 2 µM.

On to `O=C(Nc1cccc(Cl)c1OCCc1cccc(C(F)(F)F)c1)c1cc(Cl)ccc1O` [Compound 158], for which the EC50 was found to be 2 µM. Take `N#Cc1ccc(OCCc2ccccc2)c(NC(=O)c2cc(Cl)ccc2O)c1` [Compound 152]: the EC50 was found to be 7 µM. `O=C(Nc1cccc(OCc2ccc(Cl)cc2)c1)c1cc(Cl)ccc1O` [Compound 65] showed an EC50 of 17 µM.

For the molecule `Cc1cccc(NC(=O)c2cc(Cl)ccc2O)c1` [Compound 113], it took 8 µM to reach a half-maximal effect (EC50). In turn, `COC(=O)C1CCCN(c2ccc(C(F)(F)F)cc2NC(=O)c2cc(Cl)ccc2O)C1` (stereo not drawn) [Compound 315] came in with an EC50 of 1.2 µM. Take `CC(C)Cc1ccc(CNc2cccc(NC(=O)c3cc(Cl)ccc3O)c2)cc1` [Compound 13]: the EC50 was 18 µM. The same measure, in the same setting: the figure for `CC(C)c1ccc(CNc2cccc(NC(=O)c3cc(Cl)ccc3O)c2)cc1` [Compound 14] is 18 µM; for `COc1ccccc1CCOc1cccc(NC(=O)c2cccc(C)c2O)c1` [Compound 207] it is 33 µM; for `Cc1cc(C)c(OCCc2cccc(C(F)(F)F)c2)c(NC(=O)c2cc(Cl)ccc2O)c1` [Compound 159] it is 2 µM. On the same count and under the same terms, with `Cc1ccc(NC(=O)c2cc(Cl)ccc2O)c(OCCc2ccccc2C(F)(F)F)c1` [Compound 171] the figure was 5 µM; with `COc1ccccc1CCOc1cccc(NC(=O)c2ccc(F)cc2O)c1` [Compound 180], 12 µM; with `O=C(Nc1cccc(OCc2ccccc2)c1)c1cc(Cl)ccc1O` [Compound 15], 12 µM. The same measure, in the same setting: with `O=C(Nc1cc(C(F)(F)F)ccc1OCCc1cccc(OC(F)(F)F)c1)c1cc(Cl)ccc1O` [Compound 285] the figure was 0.9 µM; with `CN(CC(=O)O)c1ccc(NC(=O)c2cc(Cl)ccc2O)c(OCCc2cccc(C(F)(F)F)c2)c1` [Compound 375], 19 µM.

In turn, `O=C(Nc1cccc(OCC2(c3ccccc3)CC2)c1)c1cc(Cl)ccc1O` [Compound 44] showed an EC50 of 5 µM.

As for `O=C(Nc1cc(Cl)ccc1OCCc1cccc(Cl)c1)c1cc(Cl)ccc1O` [Compound 109], the EC50 stood at 1 µM. The same measure, in the same setting: with `COCCN(C)c1ccc(NC(=O)c2cc(Cl)ccc2O)c(OCCc2cccc(C(F)(F)F)c2)c1` [Compound 369] the figure was 4 µM; with `O=C(Nc1ccc(OC2CCCC[C@H]2c2ccccc2)cc1)c1cc(Cl)ccc1O` (stereo partly drawn) [Compound 97], 3 µM. On the same count and under the same terms, with `COc1ccccc1CCOc1cccc(NC(=O)c2cc(-c3ccccc3)ccc2O)c1` [Compound 234] the figure was 10 µM. On the same count and under the same terms, with `COc1ccccc1CCOc1cccc(NC(=O)c2ccccc2O)c1` [Compound 198] the figure was 21 µM.

Molecule `O=C(Nc1cc(C(F)(F)F)ccc1OCCOc1ccc(Cl)cc1)c1cc(Cl)ccc1O` [Compound 300] had an EC50 of 1 µM. As for `O=C(NCCc1ccc(OCc2ccccc2)c(OCc2ccccc2)c1)c1cc(Cl)ccc1O` [Compound 69], a half-maximal effect (EC50) was put at 14 µM. Still for that read-out and setting: with `O=C(NCc1cccc(-c2cccc(C(F)(F)F)c2)c1)c1cc(Cl)ccc1O` [Compound 304] the figure was 18 µM; with `COc1cccc(-c2ccc(O)c(C(=O)Nc3cccc(OCCc4ccccc4OC)c3)c2)c1` [Compound 235], 6 µM. On to `O=C(Nc1cc(C(F)(F)F)ccc1OCCC(F)(F)F)c1cc(Cl)ccc1O` [Compound 271], for which a half-maximal effect (EC50) was put at 0.9 µM. As to `O=C(NCc1ccc(F)c(C(F)(F)F)c1)c1cc(Cl)ccc1O` [Compound 319], the EC50 amounted to 17.7 µM. The molecule `COc1ccccc1CCCOc1cccc(NC(=O)c2cc(Cl)ccc2O)c1` [Compound 16] came in with an EC50 of 8 µM. On the same count and under the same terms, the figure for `CC(C)c1cccc(C(=O)Nc2cccc(OCCc3ccccc3)c2)c1O` [Compound 201] is 33 µM; for `O=C(Nc1cc(Cl)cc(Cl)c1OCCc1ccccc1C(F)(F)F)c1cc(Cl)ccc1O` [Compound 172] it is 3 µM.

`O=C(Nc1ccc(OCCc2ccccc2)cc1)c1cc(Cl)ccc1O` [Compound 63] had an EC50 of 20 µM. In the case of `O=C(Nc1cccc(OCCc2ccccc2)c1)c1cccc(-c2ccccc2)c1O` [Compound 224], the EC50 was 22 µM. The molecule `O=C(Nc1cc(Cl)ccc1OC1CCCC[C@H]1c1ccccc1)c1cc(Cl)ccc1O` (stereo partly drawn) [Compound 98] displayed a 50% effective concentration (EC50) of 4 µM. As for `O=C(Nc1cc(Cl)ccc1OCCc1ccccc1C(F)(F)F)c1cc(Cl)ccc1O` [Compound 82], the EC50 stood at 0.7 µM.

`CCOCCOc1ccc(C(F)(F)F)cc1NC(=O)c1cc(Cl)ccc1O` [Compound 295] had an EC50 of 1 µM. Same read-out and setting: with `Cc1cc(OCCc2cccc(C(F)(F)F)c2)c(NC(=O)c2cc(Cl)ccc2O)cc1Cl` [Compound 243] the figure was 1 µM.

`Cc1cccc(COc2ccc(Cl)cc2NC(=O)c2cc(Cl)ccc2O)c1` [Compound 311]: the EC50 worked out at 3 µM. `O=C(Nc1cccc(OCCc2ccccc2)c1)c1cc(Br)ccc1O` [Compound 193] had an EC50 of 7 µM. Same read-out and setting: the figure for `CN(CCc1ccccn1)c1ccc(NC(=O)c2cc(Cl)ccc2O)cc1C(F)(F)F` [Compound 364] is 7 µM; for `CN(CC(=O)OC(C)(C)C)c1ccc(NC(=O)c2cc(Cl)ccc2O)cc1C(F)(F)F` [Compound 372] it is 2 µM.

`O=C(Nc1ccc(Cl)cc1)c1cc(Cl)ccc1O` [Compound 93] yielded an EC50 of 4 µM. On the same count and under the same terms, with `O=C(Nc1cc(C(F)(F)F)ccc1SCCc1cccc(C(F)(F)F)c1)c1cc(Cl)ccc1O` [Compound 260] the figure was 1 µM; with `CC(=O)Nc1cccc(C(=O)Nc2cccc(OCCc3ccccc3)c2)c1O` [Compound 2], 23 µM. On the same count and under the same terms, the figure for `O=C(Nc1cc(Cl)ccc1OCCc1ccc(Cl)cc1)c1cc(Cl)ccc1O` [Compound 87] is 0.9 µM; for `COC(=O)c1ccc(COc2ccc(C(F)(F)F)cc2NC(=O)c2cc(Cl)ccc2O)cc1` [Compound 308] it is 0.83 µM; for `COC(=O)C=Cc1ccccc1CCOc1ccc(Cl)cc1NC(=O)c1cc(Cl)ccc1O` [Compound 302] it is 3 µM. As to `O=C(Nc1cc(C(F)(F)F)ccc1OCCc1cccs1)c1cc(Cl)ccc1O` [Compound 244], the response was half-maximal at 0.9 µM (EC50). For the molecule `COc1ccccc1CCOc1ccc(Cl)c(NC(=O)c2cc(Cl)ccc2O)c1` [Compound 32], the EC50 stood at 6 µM. In the case of `CC(C)c1ccc(COc2cccc(NC(=O)c3cc(Cl)ccc3O)c2)cc1` [Compound 85], the EC50 was determined as 6 µM. On the same count and under the same terms, with `O=C(Nc1cc(Cl)ccc1OCCc1cccc(OC(F)(F)F)c1)c1cc(Cl)ccc1O` [Compound 284] the figure was 2 µM. For the molecule `COc1ccccc1CCOc1cccc(NC(=O)c2cc(-c3cccc4ccccc34)ccc2O)c1` [Compound 338], the midpoint of the response, the EC50, lay at 7 µM.

On to `COc1ccc(C(=O)Nc2cccc(OCCc3ccccc3)c2)c(O)c1` [Compound 185], for which the EC50 was 32 µM. The same measure, in the same setting: the figure for `O=C(NCc1cccc(-c2ccccc2)c1)c1ccc(F)cc1O` [Compound 189] is 30 µM. `O=C(Nc1cc(Cl)ccc1OCCc1ccc(F)cc1)c1cc(Cl)ccc1O` [Compound 106]: the response was half-maximal at 1 µM (EC50). Still for that read-out and setting: with `O=C(Nc1cc(Cl)ccc1OCCc1cccc(F)c1)c1cc(Cl)ccc1O` [Compound 111] the figure was 1 µM; with `COc1ccc(NC(=O)c2cc(Cl)ccc2O)c(OC)c1` [Compound 256], 26 µM; with `COc1ccccc1CCOc1cccc(NC(=O)c2cc(Br)cc(F)c2O)c1` [Compound 346], 28 µM.

Still in this test, the particulars now being: Homo sapiens; LNCaP cells; flagged "Estimated": based on actual data at different concentrations.
Turning to `O=C(NCc1ccccc1-c1ccccc1)c1cc(Cl)ccc1O` [Compound 237], the EC50 is 30 µM.

With `O=C(Nc1cc(NC(=O)c2cc(Cl)ccc2O)cc(C(F)(F)F)c1)c1cc(Cl)ccc1O` [Compound 151], the EC50 was 30 µM. On the same count and under the same terms, the figure for `O=C(NCc1ccc(Cl)c(-c2ccccc2)c1)c1cc(Cl)ccc1O` [Compound 292] is 30 µM. Take `COc1ccccc1CCOc1cccc(N(C)C(=O)c2cc(Cl)ccc2OC)c1` [Compound 216]: the EC50 is 32 µM. As for `COc1cccc(-c2cccc(CNC(=O)c3cc(Cl)ccc3O)c2)c1` [Compound 317], the EC50 is 30 µM. Consider `O=C(NCc1cccc(-c2ccccc2)c1)c1cccc(-c2ccccc2)c1O` [Compound 218], for which the 50% effective concentration (EC50) is 32 µM.

Broadly, the EC50 is the concentration giving half of the maximal effect.
